Measurements as given in patent publication US10851102B2, “Imidazole and triazole containing bicyclic compounds as JAK inhibitors” (THERAVANCE BIOPHARMA R&D IP, LLC, priority 2019, dated 2020).

Experiments:
[1] = molecular target: JAK1 (Homo sapiens (Human), UniProt P23458); assay: Biochemical JAK and Tyk2 kinase assays (LanthaScreen): JAK1; conditions: 1 h pre-incubation, ATP at Km; pIC50 converted to pKi by Cheng-Prusoff
Outline: (§1)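 Recombinant GST-tagged JAK enzymes with GFP-tagged STAT1 peptide substrate in 50 mM HEPES pH 7.5, 10 mM MgCl2, 1 mM EGTA, 0.01% Brij-35. Compounds pre-incubated 1 h at ambient temperature before ATP start; 1 h reaction, then EDTA plus Tb-anti-pSTAT1 (pTyr701) TR-FRET read. IC50 from 4-parameter fit, converted to pKi by Cheng-Prusoff.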

[2] = molecular target: JAK2 (Homo sapiens (Human), UniProt O60674); assay: Biochemical JAK and Tyk2 kinase assays (LanthaScreen): JAK2; conditions: 1 h pre-incubation, ATP at Km, pIC50 converted to pKi by Cheng-Prusoff; for Ki: read-out: JAK 2 (pKi) (converted)
Sequence of JAK2 (O60674 whole entry): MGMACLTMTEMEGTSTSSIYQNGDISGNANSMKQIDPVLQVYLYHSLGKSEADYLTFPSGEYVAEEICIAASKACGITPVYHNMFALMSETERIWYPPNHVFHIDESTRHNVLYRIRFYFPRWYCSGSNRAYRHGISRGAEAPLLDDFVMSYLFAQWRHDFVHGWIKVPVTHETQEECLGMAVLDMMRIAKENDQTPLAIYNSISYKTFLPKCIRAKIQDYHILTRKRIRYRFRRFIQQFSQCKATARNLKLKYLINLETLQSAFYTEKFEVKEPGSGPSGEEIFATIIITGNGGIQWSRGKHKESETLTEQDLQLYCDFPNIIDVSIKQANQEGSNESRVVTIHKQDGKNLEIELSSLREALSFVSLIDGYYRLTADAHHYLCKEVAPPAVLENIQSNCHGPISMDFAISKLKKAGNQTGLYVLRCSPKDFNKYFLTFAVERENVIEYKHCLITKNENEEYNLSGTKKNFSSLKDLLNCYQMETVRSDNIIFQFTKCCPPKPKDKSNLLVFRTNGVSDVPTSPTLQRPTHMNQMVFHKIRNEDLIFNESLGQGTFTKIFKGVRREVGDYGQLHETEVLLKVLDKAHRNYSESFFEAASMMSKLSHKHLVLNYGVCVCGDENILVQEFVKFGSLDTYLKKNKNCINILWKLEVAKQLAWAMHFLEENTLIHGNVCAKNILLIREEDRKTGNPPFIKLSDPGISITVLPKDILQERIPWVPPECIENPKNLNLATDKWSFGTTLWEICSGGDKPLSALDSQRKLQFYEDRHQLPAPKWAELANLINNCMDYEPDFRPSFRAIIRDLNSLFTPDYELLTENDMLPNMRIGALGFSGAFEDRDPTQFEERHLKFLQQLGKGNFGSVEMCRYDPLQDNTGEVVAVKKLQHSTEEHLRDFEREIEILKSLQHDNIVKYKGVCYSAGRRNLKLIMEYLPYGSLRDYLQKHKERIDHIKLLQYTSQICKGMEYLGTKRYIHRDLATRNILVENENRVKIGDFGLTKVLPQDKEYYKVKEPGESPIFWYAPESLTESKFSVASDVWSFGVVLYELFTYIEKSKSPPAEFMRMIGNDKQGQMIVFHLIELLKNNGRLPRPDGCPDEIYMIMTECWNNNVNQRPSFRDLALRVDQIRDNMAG
Outline: as §1

[3] = molecular target: JAK3 (Homo sapiens (Human), UniProt P52333); assay: Biochemical JAK and Tyk2 kinase assays (LanthaScreen): JAK3; conditions: for JAK3 (pKi)-JAK1 (pKi): difference of pKi values, selectivity JAK3 over JAK1
Sequence of JAK3 (P52333 whole entry): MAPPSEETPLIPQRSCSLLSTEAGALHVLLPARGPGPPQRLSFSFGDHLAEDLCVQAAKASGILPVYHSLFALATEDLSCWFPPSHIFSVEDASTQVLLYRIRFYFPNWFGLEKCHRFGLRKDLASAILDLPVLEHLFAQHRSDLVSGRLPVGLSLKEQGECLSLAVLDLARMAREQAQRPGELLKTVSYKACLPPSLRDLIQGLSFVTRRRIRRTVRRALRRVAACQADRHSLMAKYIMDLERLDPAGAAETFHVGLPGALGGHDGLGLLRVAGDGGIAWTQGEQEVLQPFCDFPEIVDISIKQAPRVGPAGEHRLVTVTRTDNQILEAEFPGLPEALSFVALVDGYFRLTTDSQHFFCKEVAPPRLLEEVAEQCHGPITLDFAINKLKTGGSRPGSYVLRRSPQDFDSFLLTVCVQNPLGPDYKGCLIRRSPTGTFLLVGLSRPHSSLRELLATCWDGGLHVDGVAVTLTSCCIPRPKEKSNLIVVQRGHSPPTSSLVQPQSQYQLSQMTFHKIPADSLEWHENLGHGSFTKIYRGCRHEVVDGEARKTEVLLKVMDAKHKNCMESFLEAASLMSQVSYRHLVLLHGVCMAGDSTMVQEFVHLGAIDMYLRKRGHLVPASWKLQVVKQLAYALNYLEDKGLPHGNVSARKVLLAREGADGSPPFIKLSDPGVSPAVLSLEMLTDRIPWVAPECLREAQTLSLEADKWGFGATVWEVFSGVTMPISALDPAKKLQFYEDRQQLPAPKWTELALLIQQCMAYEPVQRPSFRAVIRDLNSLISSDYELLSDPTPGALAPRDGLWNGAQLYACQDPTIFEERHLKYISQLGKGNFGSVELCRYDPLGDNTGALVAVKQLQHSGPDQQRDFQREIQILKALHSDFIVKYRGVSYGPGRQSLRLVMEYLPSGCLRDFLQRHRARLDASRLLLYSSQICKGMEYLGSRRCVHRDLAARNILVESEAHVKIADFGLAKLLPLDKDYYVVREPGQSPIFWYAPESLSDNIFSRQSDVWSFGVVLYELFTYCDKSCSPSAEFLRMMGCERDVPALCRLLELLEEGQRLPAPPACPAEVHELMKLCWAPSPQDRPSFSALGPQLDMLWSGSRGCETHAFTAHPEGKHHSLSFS
Outline: as §1

[4] = molecular target: Tyk2 (Homo sapiens (Human), UniProt P29597); assay: Biochemical JAK and Tyk2 kinase assays (LanthaScreen): Tyk2; conditions: 1 h pre-incubation, ATP at Km; pIC50 converted to pKi by Cheng-Prusoff
Sequence of Tyk2 (P29597 whole entry): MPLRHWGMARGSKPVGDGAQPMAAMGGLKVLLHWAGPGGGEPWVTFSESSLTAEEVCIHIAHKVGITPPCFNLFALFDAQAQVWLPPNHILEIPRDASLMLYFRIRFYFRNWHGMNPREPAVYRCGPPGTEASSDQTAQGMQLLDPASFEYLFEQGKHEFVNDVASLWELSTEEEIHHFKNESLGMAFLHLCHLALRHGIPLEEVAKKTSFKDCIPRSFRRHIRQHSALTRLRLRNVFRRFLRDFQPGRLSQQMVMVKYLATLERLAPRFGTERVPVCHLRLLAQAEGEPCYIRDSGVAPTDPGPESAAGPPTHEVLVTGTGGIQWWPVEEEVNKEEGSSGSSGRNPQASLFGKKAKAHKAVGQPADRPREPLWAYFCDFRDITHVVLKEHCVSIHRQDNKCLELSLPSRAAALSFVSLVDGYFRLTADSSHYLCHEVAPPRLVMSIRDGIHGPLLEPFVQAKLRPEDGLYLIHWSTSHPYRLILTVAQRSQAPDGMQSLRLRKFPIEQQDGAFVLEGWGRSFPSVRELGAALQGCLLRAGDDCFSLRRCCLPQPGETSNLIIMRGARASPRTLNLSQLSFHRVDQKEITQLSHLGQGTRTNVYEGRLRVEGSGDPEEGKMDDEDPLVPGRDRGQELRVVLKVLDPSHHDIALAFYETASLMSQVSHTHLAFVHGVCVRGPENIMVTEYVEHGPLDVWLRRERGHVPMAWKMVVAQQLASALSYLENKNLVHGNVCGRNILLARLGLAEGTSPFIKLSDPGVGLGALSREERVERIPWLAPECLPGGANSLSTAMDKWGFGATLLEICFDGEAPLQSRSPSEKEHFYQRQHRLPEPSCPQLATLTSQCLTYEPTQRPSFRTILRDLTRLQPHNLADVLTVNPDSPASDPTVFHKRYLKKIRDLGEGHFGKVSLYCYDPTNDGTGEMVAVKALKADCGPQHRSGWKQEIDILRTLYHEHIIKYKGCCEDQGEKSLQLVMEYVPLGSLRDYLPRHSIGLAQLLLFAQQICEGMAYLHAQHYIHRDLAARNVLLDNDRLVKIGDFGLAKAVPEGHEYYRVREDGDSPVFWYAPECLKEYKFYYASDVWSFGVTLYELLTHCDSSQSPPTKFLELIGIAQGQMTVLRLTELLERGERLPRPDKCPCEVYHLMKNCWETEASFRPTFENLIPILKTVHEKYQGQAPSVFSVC
Outline: as §1

[5] = test system: IL-2 stimulated pSTAT5 in Tall-1 T cells (JAK3); assay: Cellular JAK3 potency assay: inhibition of IL-2 stimulated pSTAT5 in Tall-1 T cells; type: cell-based; conditions: IL-2 300 ng/ml, pSTAT5 AlphaLisa, Tall-1 human T cell line; read-out: Tall-1 (pIC50) (converted)
Outline: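 Human Tall-1 T cells (45,000/well) preincubated with compound 1 h at 37 °C, then stimulated with IL-2 (final 300 ng/ml) for 30 min. Lysates read for pSTAT5 (Tyr694/699) by AlphaLISA luminescence. IC50 from signal-versus-concentration curves, reported as pIC50 (mean±SD).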

[6] = test system: IL-2 stimulated pSTAT5 in CD4+ T cells isolated from murine splenocytes (JAK3); assay: Inhibition of IL-2 stimulated pSTAT5 in CD4+ T cells isolated from murine splenocytes; type: cell-based; conditions: Mus musculus, IL-2 7 ng/ml, read-out: pIC50, inhibition of IL-2 stimulated pSTAT5 (converted)
Experimental: Assay 3: Inhibition of IL-2 Stimulated pSTAT5 in CD4+ T Cells Isolated from Murine Splenocytes
The potency of test compounds for inhibition of interleukin-2 (IL-2) stimulated STATS phosphorylation was measured in the CD4+ T cells isolated from murine splenocytes using AlphaLisa. Because IL-2 signals through JAK3, this assay provides a measure of JAK3 cellular potency in mouse.
Phosphorylated STATS was measured via the AlphaLISA SureFire Ultra pSTAT5 (Tyr694/699) kit (PerkinElmer).
CD4+ T cells were isolated from murine splenocytes via negative selection on a magnetic column (Miltnyi Biotec) and re-suspended in assay media (phenol red-free DMEM (Life Technologies) supplemented with 10% FBS (ATCC)). Cells were seeded at 50,000 cells/well in assay media (2 μL/well). Compounds were serially diluted in DMSO and diluted to 2× final concentration in assay media. Compound was added (4 μl/well) and the cells incubated at 37° C., 5% CO2 for 1 hour, followed by the addition of IL-2 (R&D Systems; final concentration 7 ng/ml) in pre-warmed assay media (2 μL) for 30 minutes. After cytokine stimulation, cells were lysed with 2 μl of 5× AlphaLisa Lysis Buffer (PerkinElmer). The lysate was shaken at 900 rpm for 10 minutes at room temperature (RT). Phosphorylated STATS was measured via the pSTAT5 AlphaLisa kit (PerkinElmer). Freshly prepared acceptor bead mixture was dispensed onto lysate (5 ul) under green filtered <100 lux light. Plates were shaken at 900 rpm for 2 mins, briefly spun down, and incubated for 2 hrs at RT in the dark. Donor beads were dispensed (5 μl) under green filtered <100 lux light. Plates were shaken at 900 rpm for 2 mins, briefly spun down, and incubated overnight at RT in the dark. Luminescence was measured with excitation at 689 nm and emission at 570 nm using an EnVision plate reader (PerkinElmer) under green filtered <100 lux light.
To determine the inhibitory potency of test compounds in response to IL-2, the average emission intensity of beads bound to pSTATS was measured in primary CD4+ T cells isolated from murine splenocytes. IC50 values were determined from analysis of the inhibition curves of signal intensity vs compound concentration. Data are expressed as pIC50 (negative decadic logarithm IC50) values (mean±standard deviation).

[7] = Colon and plasma mouse pharmacokinetics; type: in vivo; conditions: mouse; ratio of colon AUC to plasma AUC; male Balb/c mice, 10 mg/kg PO
Experimental: Assay 6: Colon and Plasma Mouse Pharmacokinetics
6 male Balb/c mice were administered 10 mg/kg of compound in 1% HPMC+0.1% Tween-80 by PO administration. At 0.5, 2 and 6 hours after dose administration, animals were anesthetized, and terminal blood samples were collected by cardiac puncture, followed by collection of colon contents and colon tissue.
Blood samples were collected into K2EDTA and stored on wet ice until processed to plasma by centrifugation (12,000 rpm at 4° C.). Plasma samples were transferred to cluster tubes and placed on dry ice prior to freezer storage. The colon contents from each animal were collected at each terminal blood collection time point. The colon tissues were flushed with saline and patted dry. The colon and colon content tissues were homogenized using sterile water containing 0.1% formic acid 9:1 (water:tissue, v/w). The homogenized tissues and colon contents were transferred to cluster tubes and placed on dry ice prior to freezer storage. All samples were analyzed using LC/MS/MS against analytical standards.
The composite pharmacokinetic parameters of the compounds were determined by non-compartmental analysis using Phoenix WinNonlin Version 6 (Certara, St. Louis, Mo.) and using mean values from 2 animals/time point. For plasma concentrations below the quantification limit (BQL), the lowest concentration measurable or the BLOQ (below limit of quantification) was used.
A colon to plasma ratio was determined as the ratio of the colon AUC to the plasma AUC.

[8] = test system: Caco-2 cell monolayers; assay: Caco-2 permeation assay; type: in vitro ADME, human; conditions: 5 μM, A to B, + Verapamil 25 μM, 120 minutes
Description: Assay 5: Caco-2 Permeation Assay

[9] = 1 h pre-incubation, ATP at Km, pIC50 converted to pKi by Cheng-Prusoff

Sequence of JAK1 (P23458 whole entry): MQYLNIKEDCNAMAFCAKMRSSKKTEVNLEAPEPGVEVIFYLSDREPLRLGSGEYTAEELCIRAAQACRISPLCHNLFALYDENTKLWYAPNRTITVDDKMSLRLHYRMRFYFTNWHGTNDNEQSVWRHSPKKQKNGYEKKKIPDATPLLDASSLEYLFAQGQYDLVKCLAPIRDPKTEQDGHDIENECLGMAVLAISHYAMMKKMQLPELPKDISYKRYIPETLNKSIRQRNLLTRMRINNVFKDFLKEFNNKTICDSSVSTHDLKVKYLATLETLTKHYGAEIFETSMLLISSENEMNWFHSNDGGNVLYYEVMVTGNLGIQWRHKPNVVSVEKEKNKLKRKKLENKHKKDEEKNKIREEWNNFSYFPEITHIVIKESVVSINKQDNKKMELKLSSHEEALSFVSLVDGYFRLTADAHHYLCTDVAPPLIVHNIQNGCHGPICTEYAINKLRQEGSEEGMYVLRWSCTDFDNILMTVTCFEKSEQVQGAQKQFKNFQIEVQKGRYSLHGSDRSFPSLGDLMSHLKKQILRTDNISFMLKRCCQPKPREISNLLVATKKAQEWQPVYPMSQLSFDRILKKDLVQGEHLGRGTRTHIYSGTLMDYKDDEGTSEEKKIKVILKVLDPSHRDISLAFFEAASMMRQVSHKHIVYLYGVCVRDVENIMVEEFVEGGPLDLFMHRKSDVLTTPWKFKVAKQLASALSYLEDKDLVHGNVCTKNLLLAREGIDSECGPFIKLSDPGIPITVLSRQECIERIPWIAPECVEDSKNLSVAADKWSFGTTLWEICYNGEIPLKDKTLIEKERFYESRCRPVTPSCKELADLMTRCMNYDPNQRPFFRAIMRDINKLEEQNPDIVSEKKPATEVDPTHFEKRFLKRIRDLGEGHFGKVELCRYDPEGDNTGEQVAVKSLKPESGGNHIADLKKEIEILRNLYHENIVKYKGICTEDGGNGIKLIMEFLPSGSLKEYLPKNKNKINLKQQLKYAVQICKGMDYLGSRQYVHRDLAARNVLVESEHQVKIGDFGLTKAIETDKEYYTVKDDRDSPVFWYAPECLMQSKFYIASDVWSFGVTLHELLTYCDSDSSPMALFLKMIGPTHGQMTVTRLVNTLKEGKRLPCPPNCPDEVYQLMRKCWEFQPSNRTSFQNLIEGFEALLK

| SMILES | JAK 1 (pKi) [1] | Ki [2] | JAK 3 (pKi) [3, 9] | JAK3 (pKi)-JAK1 (pKi) [3] | Tyk 2 (pKi) [4] | IC50 [5] | IC50 [6] | Kp [7] | Ki [1] | Ki ([3]; 1 h pre-incubation, ATP at Km, pIC50 converted to pKi by Cheng-Prusoff, read-out: JAK 3 (pKi) (converted)) | Caco Kp 10^−6 cm/sec [8] | JAK 2 (pKi) [2] |
| --- | --- | --- | --- | --- | --- | --- | --- | --- | --- | --- | --- | --- |
| C=CC(=O)N1CC[C@@H](Oc2cc(-c3ccc(O)cc3)cn3cncc23)C[C@H]1C [Example 15, 1-((2R,4R)-4-((6-(4-hydroxyphenyl)imidazo[1,5-a]pyridin-8-yl)oxy)-2-methylpiperidin-1-yl)prop-2-en-1-one] | E (E represents a pKi value of 7 or below (Ki of 100 nM or above)) | 10 to 100 nM | A (A represents a pKi value≥10 (Ki≤0.1 nM)) | A (A represents a value of 3 or above) | E (E represents a pKi value of 7 or below (Ki of 100 nM or above)) | ≤ 31.6 nM | < 1000 nM | > 30 | – | – | – | – |
| C=CC(=O)N1CCC[C@H](Oc2cc(-c3cc(F)c(O)cc3CC)cn3cncc23)C1 [Example 16] | – | 10 to 100 nM | – | B (B represents a value of 2.3 to 3) | E (E represents a pKi value of 7 or below (Ki of 100 nM or above)) | 31.6 to 200 nM | – | > 200 | 10 to 100 nM | 0.1 to 1 nM | C (C represents a value between 10×10^−6 and 25×10^−6 cm/sec) | – |
| CCc1cc(O)c(F)cc1-c1cc(OCC2CN(C(=O)/C=C/CN(C)C)C2)c2cncn2c1 [Example 24] | E (E represents a pKi value of 7 or below (Ki of 100 nM or above)) | – | A (A represents a pKi value≥10 (Ki≤0.1 nM)) | A (A represents a value of 3 or above) | E (E represents a pKi value of 7 or below (Ki of 100 nM or above)) | 31.6 to 200 nM | < 1000 nM | > 200 | – | – | A (A represents a value below 5×10^−6 cm/sec) | E (E represents a pKi value of 7 or below (Ki of 100 nM or above)) |
| C=CC(=O)N1CCC(Oc2cc(-c3ccc(O)cc3)cn3cncc23)CC1 [Example 30] | E (E represents a pKi value of 7 or below (Ki of 100 nM or above)) | – | A (A represents a pKi value≥10 (Ki≤0.1 nM)) | A (A represents a value of 3 or above) | E (E represents a pKi value of 7 or below (Ki of 100 nM or above)) | 31.6 to 200 nM | – | > 8 | – | – | C (C represents a value between 10×10^−6 and 25×10^−6 cm/sec) | E (E represents a pKi value of 7 or below (Ki of 100 nM or above)) |
